This is an account of results in PMC11267533, “Ligandability at the Membrane Interface of GPx4 Revealed through a Reverse Micelle Fragment Screening Platform” (JACS Au, 2024).

In data set [1] the target is T1, aqueous (water-solubilized) GPx4 (Homo sapiens, UniProt P36969, U73G).
T1 construct: Truncated U46G-GPx4 with a TEV cleavable poly-histidine tag was inserted into vector; poly-histidine tag with TEV cleavage site; host or cells: BL21 (DE3) E. coli
T1 sequence (P36969 1-170 isoform P36969-2 U46G): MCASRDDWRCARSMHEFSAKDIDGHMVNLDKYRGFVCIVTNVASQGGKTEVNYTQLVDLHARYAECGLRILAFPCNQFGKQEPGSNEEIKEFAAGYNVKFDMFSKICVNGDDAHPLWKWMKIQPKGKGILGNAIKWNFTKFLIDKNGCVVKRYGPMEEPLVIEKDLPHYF
Briefly: 15N-HSQC CSP binding experiment with GPx4 in bulk aqueous conditions. The settings on record: for Binding to aqueous GPx4 (CSPs versus mmRM): 400 μM fragment, 100 μM GPx4, 1% DMSO; for Binding to aqueous GPx4 (CSPs): 15 mM fragment, 100 μM GPx4, 5% DMSO. As to the method:
Next, we sought to understand whether fragment hits were solely bound to the membrane-embedded form of GPx4 or could also bind to the aqueous form. We performed aqueous binding experiments with 3 fragment hits with varying hydrophobicities. Of the fragment hits with Kd < 1 mM, the most hydrophobic fragment (fragment 5, cLog D 2.05, 5-hydroxy-1,3-benzoxathiol-2-one) and a hydrophilic fragment with the strongest affinity (fragment 6, cLog D −2.14, (2-methoxyethyl)(4-pyridinylmethyl)amine hydrochloride) were selected, along with a compound with an amphipathic structure and only modest hydrophobicity (fragment 1, cLog D 1.05, 4-(phenylamino)-1,2-dihydropyridin-2-one). Aqueous GPx4 was combined with 400 μM of either fragments 1, 5, or 6 to directly compare to the mmRM experiments. […] Since our fragments have variable degrees of solubility and partitioning, we realized that a hydrophilic fragment like 6 may partition into the water core of the mmRM, essentially causing a concentration effect as observed previously.[32],[33] To rule this out, the concentration of the fragments was increased to 15 mM in an aqueous sample, which would be the effective concentration if all of the fragments partitioned completely into the RM water core. […] DLS measurements were also collected to check for fragment aggregation in the aqueous conditions.[58] […] Inspection of ^1H NMR spectra confirmed that the aggregation observed at high concentration of fragments 1 and 5 is a small portion of the overall fragment concentration and that most of the fragment is in solution.
Fragments 1, 5, and 6 were selected to perform proof-of-concept experiments in bulk aqueous conditions. 400 μM and 15 mM aliquots of fragment were vacuum-dried overnight to remove excess DMSO. An apo GPx4 reference was collected with 1% DMSO or 5% DMSO to ensure that CSP calculations took into account DMSO needed for fragment solubilization. 100 μM GPx4 was added to the dried fragments, and DMSO was added to a total of 1% for the 400 μM and 5% for the 15 mM fragment experiments. These percentages were the lowest amounts needed to solubilize the fragments in solution. Prior to experimentation, the pH of the sample was checked to ensure that no change was observed upon the addition of the fragments. However, the 100 mM Bis-Tris at pH 6.0 ensured that the pH was not altered. ^15N-HSQC experiments were collected, and CSPs were analyzed and compared to the top-shifting resonances determined from the mmRM experiments. DLS measurements were collected to assess fragment aggregation in the aqueous conditions using a Malvern Zetasizer Nano-S instrument.

In data set [2] the target is T2, GPx4 bound to DPC micelles (Homo sapiens, UniProt P36969, U73G).
T2 construct: Truncated U46G-GPx4 with a TEV cleavable poly-histidine tag was inserted into vector; poly-histidine tag with TEV cleavage site; host or cells: BL21 (DE3) E. coli
T2 sequence (P36969 1-170 isoform P36969-2 U46G): T1 sequence (P36969 1-170 isoform P36969-2 U46G)
Kind of data set: 15N-HSQC CSP experiment with GPx4 bound to DPC micelles. In kind it is binding. Conditions: 400 μM analogue, 0.4% DMSO. From the text: To investigate whether or not these fragments could be built upon and progress to higher affinity binders and potentially inhibitors, a secondary screening approach was used to find analogues of the original fragments. A fragment growing approach was followed due to the high success rate of improving fragment hits.[61],[62] Fragment growing improves binding affinity, or other properties, with the addition of different substitutions and/or expansions.[20] Commercially available analogues of fragments 1 and 5 were found by searching the ChemBridge (San Diego, CA) catalog for analogues with a 60% similarity for fragment 1 and a 70% similarity for fragment 5. A subset of analogues for each fragment was purchased and tested. These two fragments were the main focus for fragment progression due to their observed ability to partition into bilayers and bind to inhibitory regions of membrane-bound GPx4. Fragment 6 was not investigated further since it resides mainly in the water core of the mmRM model, and while interesting, it falls outside of our focus for this study. While all the five selected fragment 1 analogues produced reasonable CSPs in the membrane interface of GPx4; none produced titration curves that indicated enhanced binding (Table S1). […]

The nature of data set [3]: DLS check for fragment aggregation in aqueous conditions. The settings on record: 15 mM, 5% DMSO. The class given is physicochemical. As to the method:
Next, we sought to understand whether fragment hits were solely bound to the membrane-embedded form of GPx4 or could also bind to the aqueous form. We performed aqueous binding experiments with 3 fragment hits with varying hydrophobicities. Of the fragment hits with Kd < 1 mM, the most hydrophobic fragment (fragment 5, cLog D 2.05, 5-hydroxy-1,3-benzoxathiol-2-one) and a hydrophilic fragment with the strongest affinity (fragment 6, cLog D −2.14, (2-methoxyethyl)(4-pyridinylmethyl)amine hydrochloride) were selected, along with a compound with an amphipathic structure and only modest hydrophobicity (fragment 1, cLog D 1.05, 4-(phenylamino)-1,2-dihydropyridin-2-one). Aqueous GPx4 was combined with 400 μM of either fragments 1, 5, or 6 to directly compare to the mmRM experiments. […] Since our fragments have variable degrees of solubility and partitioning, we realized that a hydrophilic fragment like 6 may partition into the water core of the mmRM, essentially causing a concentration effect as observed previously.[32],[33] […]
Fragments 1, 5, and 6 were selected to perform proof-of-concept experiments in bulk aqueous conditions. […] However, the 100 mM Bis-Tris at pH 6.0 ensured that the pH was not altered. ^15N-HSQC experiments were collected, and CSPs were analyzed and compared to the top-shifting resonances determined from the mmRM experiments. […]

Structures are written as SMILES.

`O=c1oc2c(-c3ccc(Cl)c(Cl)c3)cc(O)cc2s1` [Analog 5.5]: the “CSPs of aqueous GPx4” value in data set [1] (400 μM analogue, 1.5% DMSO) is on record as “little to no shifting”. Further, the “CSPs of GPx4 bound to DPC micelles” value in data set [2] is given as “reasonable CSPs were observed”.
As to `O=c1cc(Nc2ccccc2)cc[nH]1` [Fragment 1, 4-(phenylamino)-1,2-dihydropyridin-2-one], in data set [1], the “Binding to aqueous GPx4 (CSPs versus mmRM)” value was “do not bind strongly to the aqueous form of the protein” and the “Binding to aqueous GPx4 (CSPs)” value was “neither produced significant CSPs”. For the same molecule, the “Fragment aggregation by DLS” value in data set [3] is “a small population of large aggregating species”.
The corresponding values for `O=c1oc2ccc(O)cc2s1` [Fragment 5, 5-hydroxy-1,3-benzoxathiol-2-one] are “do not bind strongly to the aqueous form of the protein”, “does produce some CSPs that could be detected by a soluble screen” and “a small population of large aggregating species”.
In the case of `COCCNCc1ccncc1.Cl` [Fragment 6, (2-methoxyethyl)(4-pyridinylmethyl)amine hydrochloride], in data set [1], the “Binding to aqueous GPx4 (CSPs versus mmRM)” value was “do not bind strongly to the aqueous form of the protein” and the “Binding to aqueous GPx4 (CSPs)” value was “neither produced significant CSPs”.
